Assay: In vitro dissolution test, USP Apparatus II at pH 1.2 for 1 hour
Format: physicochemical
Method: The in vitro dissolution tests were conducted in an USP Apparatus II at pH 1.2 for 1 hour. The cysteamine bitartrate raw material was completely dissolved in 10 minutes.

## NCCS.O=C(O)C(O)C(O)C(=O)O (stereo not shown) [cysteamine bitartrate raw material, cysteamine bitartrate]
  time to complete dissolution: 10 min
